Data from patent US20250243176A1, “(S)-1-(1-ACRYLOYLPIPERIDIN-3-YL)-2-FLUORO-5,6,7,8,9,10-HEXAHYDROCYCLO HEPTA[B]INDOLE-4-CARBOXAMIDE, AND RELATED CRYSTALLINE FORMS, COMPOSITIONS, AND METHODS THEREOF” (GB005, Inc., priority 2021, published 2025).

What was measured:
[1] = Phase 1 single ascending dose plasma pharmacokinetics; format: in vivo, human; details: for AUC(0-inf) / Cmax / half-life / Tmax: both sexes, human, plasma, fed; for AUC(0-inf) / Cmax: mean; for dose proportionality of exposure (AUCinf): single dose
Protocol: The study investigates the administration of Compound 1 to healthy human subjects, to evaluate the safety, tolerability and PK of single and multiple-escalating doses. Additional objectives include assessing the effect of formulation on PK, the effect of food on PK, the effect of a CYP3A inhibitor on PK and the effect of Compound 1 on CYP3A activity. PK parameters including AUC, AUC, Cmax, and Tmax are determined. An additional exploratory objective evaluates pharmacodynamics, as the time-course of BTK inhibition. The study is conducted with up to 144 healthy male and female subjects, aged 18-55 years, with a body weight over 48 kg, BMI 18.5-30.0 kg/m^2, with no clinically significant abnormalities.
Part A is a randomized, double-blind, placebo-controlled, single- and -multiple-dose study with staggered dose escalation, administered in the fed state (standard moderate-fat meal). Part A consists of […] (up to 7 single-ascending dose [SAD] cohorts [Cohorts 1-6 & 14], and up to 3 multiple ascending dose [MAD] cohorts [Cohorts 7-9]). Subjects are randomized in a 3:1 ratio per cohort to receive either: Compound 1 Formulation A (N=6 for Cohorts 1-4 and N=9 for Cohorts 5-9 & 14); or placebo (PBO; N=2 for Cohorts 1-4 and N=3 for Cohorts 5-9 & 14).
• Cohorts 1-4: Day 1, all subjects receive a single dose of Formulation A Compound 1 or placebo. • Cohorts 5, 6 & 14: Day −1, all subjects receive placebo (establish baseline ECG assessments). Day 1, subjects receive a single oral dose of Compound 1 or placebo.
Safety is assessed throughout the study and PK and PD are characterized using serial blood samples collected up to 48 hours post-dose for Compound 1 plasma concentrations, BTK target occupancy (TO) and target engagement (TE). Cerebrospinal fluid (CSF) samples are collected at 2 hours post-dose to characterize the relationship between Compound 1 plasma concentrations and CNS penetrance (CSF/Unbound plasma concentration). Compound 1 PK parameters (e.g., AUClast, AUCinf, Cmax, Tmax, t1/2) are estimated by standard noncompartmental methods.
Results: Preliminary pharmacokinetic results from […] are presented, including […] (7 receiving 5 mg, 8 receiving 15 mg, 8 receiving 45 mg, 8 receiving 5 mg+10 mg placebo, 12 receiving 100 mg and 12 receiving 200 mg: randomized in a 3:1 ratio to receive Compound 1 or placebo) in a fed state (moderate-fat meal). […] Preliminary PK parameters are presented in Table 45 (all pharmacokinetic parameters of Table 45 are reported as Mean (% coefficient of variation), except for Tmax and t/2, which are reported as Median (Min, Max)), and in FIG. 25 presenting the mean (SD) plasma concentration-time profiles of Compound 1.

[2] = CNS penetration (background statement)
From the text: (S)-1-(1-acryloylpiperidin-3-yl)-2-fluoro-5,6,7,8,9,10-hexahydrocyclohepta[b]indole-4-carboxamide, hereinafter referred to as “Compound 1”, is an orally available, selective, potent inhibitor of Bruton's tyrosine kinase (BTK), thereby providing potential treatment options in BTK-driven diseases. The potency of Compound 1 for BTK inhibition is in the nM range in both cell-free enzymatic and whole blood functional assays.

[3] = Phase 1 food effect on pharmacokinetics; format: in vivo, human; details: for Tmax / half-life / AUC(0-inf) / Cmax: human, plasma, oral; for AUC(0-inf) / Cmax: mean
From the text: Cohort 11 is a randomized, 2-treatment, 2-period, 2-sequence, single-dose level food effect evaluation. The formulation used in Cohort 11 is Formulation A. In Treatment Sequence FH, subjects receive Compound 1 in the fasted state on Day 1, and a second dose in the fed state (high-fat, high-calorie meal) on Day 8. In Treatment Sequence HF, subjects receive Compound 1 in the fed state (high-fat, high-calorie meal) on Day 1 and a second dose in the fasted state on Day 8. Days 2-7 are washout days.
Results: Preliminary pharmacokinetic results evaluating the effect of food on Compound 1 PK are presented, including 12 subjects from Cohort 11, […] 15 mg under fasting conditions, or in a fed state (with a moderate-fat meal or with a high-fat high-calorie meal). Preliminary PK parameters are presented in Table 48 (all pharmacokinetic parameters of […] are reported as Mean (% coefficient of variation), except for Tmax and t/2, which are reported as Median (Min, Max)), and in FIG. 28.

[4] = oral, 5 mg, Cohort 1, 5 mg single dose
[5] = oral, 5 mg, Cohort 4, 5 mg (+10 PBO) single dose
[6] = oral, 15 mg, Cohort 2, 15 mg single dose
[7] = oral, 45 mg, Cohort 3, 45 mg single dose
[8] = oral, 100 mg, Cohort 5, 100 mg single dose
[9] = oral, 200 mg, Cohort 6, 200 mg single dose
[10] = 15 mg, Cohort 11, 15 mg single dose, Fasted
[11] = 15 mg, Cohort 11, 15 mg single dose, High-Fat
[12] = 15 mg, Cohorts 2 and 7, 15 mg single dose, Moderate-Fat

An AUC(0-inf) [1, 4] of 62.1 ng·h/mL, a Cmax [1, 4] of 22.5 ng/mL and a half-life ([1]; oral, 5 mg, Cohort 1, 5 mg single dose, median, read-out: T1/2 (converted)) of 2.77 h were found for C=CC(=O)N1CCC[C@@H](c2c(F)cc(C(N)=O)c3[nH]c4c(c23)CCCCC4)C1 [Compound 1, (S)-1-(1-acryloylpiperidin-3-yl)-2-fluoro-5,6,7,8,9,10-hexahydrocyclohepta[b]indole-4-carboxamide] in this work. For the same molecule, the Tmax ([1]; oral, 5 mg, Cohort 1, 5 mg single dose, median, read-out: Tmax) was 2 h, the AUC(0-inf) [1, 5] was 121 ng·h/mL and the Cmax [1, 5] was 36 ng/mL. It also gave a half-life ([1]; oral, 5 mg, Cohort 4, 5 mg (+10 PBO) single dose, median, read-out: T1/2 (converted)) of 3.33 h, a Tmax ([1]; oral, 5 mg, Cohort 4, 5 mg (+10 PBO) single dose, median, read-out: Tmax) of 1.75 h and an AUC(0-inf) [1, 6] of 339 ng·h/mL. The Cmax [1, 6] was 124 ng/mL, the half-life ([1]; oral, 15 mg, Cohort 2, 15 mg single dose, median, read-out: T1/2 (converted)) was 3.6 h and the Tmax ([1]; oral, 15 mg, Cohort 2, 15 mg single dose, median, read-out: Tmax) was 1 h. The AUC(0-inf) [1, 7] was 859 ng·h/mL, the Cmax [1, 7] was 283 ng/mL and the half-life ([1]; oral, 45 mg, Cohort 3, 45 mg single dose, median, read-out: T1/2 (converted)) was 3.4 h. The Tmax ([1]; oral, 45 mg, Cohort 3, 45 mg single dose, median, read-out: Tmax) was 1.5 h, the AUC(0-inf) [1, 8] was 2290 ng·h/mL and the Cmax [1, 8] was 555 ng/mL. For the same molecule, the half-life ([1]; oral, 100 mg, Cohort 5, 100 mg single dose, median, read-out: T1/2 (converted)) was 4.29 h, the Tmax ([1]; oral, 100 mg, Cohort 5, 100 mg single dose, median, read-out: Tmax) was 1.5 h and the AUC(0-inf) [1, 9] was 4480 ng·h/mL. It also gave a Cmax [1, 9] of 814 ng/mL, a half-life ([1]; oral, 200 mg, Cohort 6, 200 mg single dose, median, read-out: T1/2 (converted)) of 4.5 h and a Tmax ([1]; oral, 200 mg, Cohort 6, 200 mg single dose, median, read-out: Tmax) of 3 h. The Tmax ([1]; po, healthy subjects, single oral dose, SAD cohorts, read-out: mean plasma Tmax) was 1 to 3 h, the half-life ([1]; po, healthy subjects, single oral dose, SAD cohorts, read-out: terminal half-life) was 3 to 4 h and the “dose proportionality of exposure (AUCinf)” value ([1]; from 5 to 15 mg) was “greater than dose-proportional”. The “dose proportionality of exposure (AUCinf)” value ([1]; from 15 to 200 mg) was “near dose-proportional”, the CNS penetration [2] was “penetrant” and the “AUC0-inf, High-Fat/Fasted % GMR - paired” value ([3]; 15 mg single dose) was 120.3%. For the same molecule, the “AUC0-inf, Moderate-Fat/Fasted % GMR - unpaired” value ([3]; 15 mg single dose) was 107.9%, the “Cmax, High-Fat/Fasted % GMR - paired” value ([3]; 15 mg single dose) was 68.0% and the “Cmax, Moderate-Fat/Fasted % GMR - unpaired” value ([3]; 15 mg single dose) was 74.1%. The Tmax ([3]; both sexes, 15 mg, single 15 mg dose, fasting, moderate-fat meal or high-fat high-calorie meal, read-out: mean plasma Tmax) was 1 to 2.5 h, the half-life ([3]; both sexes, 15 mg, single 15 mg dose, fasting, moderate-fat meal or high-fat high-calorie meal, read-out: terminal half-life (converted)) was roughly 3 h and the AUC(0-inf) [3, 10] was 312 ng·h/mL. The Cmax [3, 10] was 137 ng/mL, the half-life ([3]; 15 mg, Cohort 11, 15 mg single dose, Fasted, median, read-out: T1/2 (converted)) was 2.89 h and the Tmax ([3]; 15 mg, Cohort 11, 15 mg single dose, Fasted, median, read-out: Tmax) was 1 h. The AUC(0-inf) [3, 11] was 356 ng·h/mL, the Cmax [3, 11] was 85.5 ng/mL and the half-life ([3]; 15 mg, Cohort 11, 15 mg single dose, High-Fat, median, read-out: T1/2 (converted)) was 2.99 h. It also gave a Tmax ([3]; 15 mg, Cohort 11, 15 mg single dose, High-Fat, median, read-out: Tmax) of 2.5 h, an AUC(0-inf) [3, 12] of 322 ng·h/mL and a Cmax [3, 12] of 101 ng/mL. For the same molecule, the half-life ([3]; 15 mg, Cohorts 2 and 7, 15 mg single dose, Moderate-Fat, median, read-out: T1/2 (converted)) was 2.9 h, the Tmax ([3]; 15 mg, Cohorts 2 and 7, 15 mg single dose, Moderate-Fat, median, read-out: Tmax) was 1.5 h and the “effect of food on PK” value ([3]; moderate fat, or high-fat high calorie meal, 15 mg) was “no clinically significant effect”.
